Test results: patent US12214076B2, “Drug delivery vehicles for atherosclerosis nanomedicine” (Northwestern University, priority 2019, dated 2025)
Peptide text beside a SMILES is read from it. * marks the point of attachment. Palmitoyl = CCCCCCCCCCCCCCCC(=O)*

Legend:
Zeta potential = type: physicochemical
Protocol: Zeta potential: The PA charge was characterized using a Zetasizer Nano ZS (Malvern). Samples were prepared at 0.5 mM and passed through a 0.2 μm filter (Acrodisc® Syringe Filters with Supor® Membrane, Pall). At least 10 scans were taken per measurement, three measurements per sample at 25° C. and 37° C.

[1] = system: inducible nitric oxide synthase (iNOS); test: iNOS expression by flow cytometry; type: cell-based, mouse; conditions: vs. stimulated control
[2] = Small angle x-ray scattering (SAXS) of PA nanofibers; type: physicochemical
Protocol: Small angle x-ray scattering (SAXS): SAXS characterization of the PA nanofibers was performed at the Advanced Photon Source in the Argonne National Laboratory on beamline 5-ID-D, DuPont-Northwestern-Dow Collaborative Access Team Synchrotron Research Center. Samples were prepared at 5 mM in PBS solution, aged at least 24 hours at 4° C., and analyzed in 1.5 mm quartz capillaries (Charles Supper) at 17 keV with a charged couple device photon detector located 245 cm behind the sample. Scattering intensities were collected using wave vector q range of 0.0024 to 0.40 Å^−1. q represents the scattering vector and is calculated as q=4π sin (θ)/λ, with θ as the scattering angle between the incident beam and detector and […] the X-ray wavelength. The plots of scattering intensity versus q were obtained using NIST software Igor Pro v8. The scattering intensities of PBS were subtracted from the PA samples using the Irena SAS macro, and the resulting plots were fitted using NCNR Analysis macro to a polydisperse core shell cylinder model.

LDLR KO mice = test: Targeting of atherosclerosis by IV injected ApoA1 PA nanofibers (Example 3); type: in vivo, mouse
Protocol: Mouse model of atherosclerosis: To study atherosclerosis, the LDLR KO mouse was used. LDLR KO mice are fed a high fat “western” diet (Teklad TD.88137) starting at 4 weeks of age. This diet consists of 20% fat, 0.2% cholesterol, and 34% high sucrose. LDLR KO mice fed this diet typically develop severe hypercholesterolemia (>800 mg/dL) and hypertriglyceridemia (>300 mg/dL) after only 2 weeks. By 12 weeks on the high fat diet, atherosclerotic lesions are detected in the aortic root and aortic arch on cryosections stained with Oil Red O (Sigma). Atherosclerosis was quantified in the aortic root as a percentage of the aortic root by taking the atherosclerotic area divided by the total aortic root area. Measurements were made with ImageJ software. All protocols for the animal model and procedures in this manuscript were approved by Northwestern University's Institutional Animal Care and Use Committee.
Injection of PA nanofibers: PA nanofibers were dissolved at 2-4 mg/mL concentration in room temperature phosphate buffered saline (PBS). After 14 weeks on the high fat diet, mice received intravenous injections of PA nanofiber dissolved in PBS (dorsal penile vein in males, retro-orbital injection in females) using a 31 G hypodermic insulin needle on a 0.3 mL syringe under sterile conditions and magnification (NIKON SMZ 645 Zoom Stereomicroscope). Mice were briefly anesthetized for injection with inhaled isoflurane. Mice were monitored and allowed to recover from anesthesia in a heated oxygen chamber.
(§1) Dose and concentration study: To determine the optimum concentration for targeting efficacy and safety, LDLR KO mice fed the high fat diet for 14 weeks were injected with PA nanofiber at concentrations of 1 mg/mL, 2 mg/mL, and 4 mg/mL at 8 mg/kg in PBS. Similarly, to determine the optimum dose for targeting efficacy and safety, LDLR KO mice fed the high fat diet for 14 weeks were injected at PA nanofiber doses of 8 mg/kg, 6 mg/kg, 4 mg/kg, 3.3 mg/kg, and 1.7 mg/kg at 2 mg/mL in PBS. Safety, optimum dose, and concentration for targeting was assessed by survival of the animal and fluorescent pixel quantification in the aortic root, liver, lungs, kidneys, and spleen.
(§2) Tissue processing and imaging: Mice were sacrificed and euthanized under inhaled isoflurane anesthesia by diaphragm disruption and exsanguination. Phlebotomy was performed through direct right ventricular cardiac puncture using a 1 mL syringe and 25 G needle. Perfusion was performed through left ventricular cardiac puncture with 10 mL PBS and 10 mL 10% sucrose solution. The lungs, liver, spleen, kidney, aortic root, aortic arch, and descending aorta were harvested and stored in 10% sucrose for 20 minutes. Organs and vessels were then flash-frozen in Optimal Cutting Temperature embedding medium 4583 (Tissue-Tek®) with liquid nitrogen. Frozen specimens were stored at −80° C. and cryosectioned at […]. Confocal microscopy was performed on a Nikon AIR microscope. Two sets of images were acquired with a 10× Plan Fluor NA 0.3 objective. PAs were identified through quantification of the Alexa Fluor® 546 conjugated dye with 561 nm excitation and a 600/50 nm emission filter.
Images were acquired with spectral detection and spectrally unmixed to accurately separate green autofluorescence from the red Alexa Fluor® 546 signal. Brightfield and fluorescent microscopy were performed using a Zeiss Axio Imager.A2 microscope with AxioVision software (release 4.8.2, 06-2010). All confocal and fluorescent sections were mounted with ProGold Diamond mounting media (Sigma). Slides were stained with Oil Red O to image and quantify atherosclerosis under brightfield microscopy. The elastic laminae were identified using the green fluorescent protein (GFP) filter with an exposure time of 3500 ms under 5× magnification. Nanofibers were identified in the aortic root by presence of Alexa Fluor® 546 on the Cy3 filter under 5-10× magnification, and in the internal organs under 20× magnification. […]

[3] = Off-target localization in internal organs, fluorescent pixel analysis; type: in vivo, mouse
Protocol: as §1, §2
Images were acquired with spectral detection and spectrally unmixed to accurately separate green autofluorescence from the red Alexa Fluor® 546 signal. […] Slides were stained with Oil Red O to image and quantify atherosclerosis under brightfield microscopy. […] Fluorescent pixel quantification in the aortic root and within organs was performed with ImageJ software.

Compound	overall charge (zeta potential) (Zeta potential; 25° C.) [mV]	overall charge (zeta potential) (Zeta potential; 37° C.)	intracellular iNOS expression of stimulated macrophages [1]	SAXS slope of Guinier regime in the low q region ([2]; 5 mM in PBS)	core radius (polydisperse core-shell cylinder model) ([2]; SAXS fit) [nm]	radial shell thickness (polydisperse core-shell cylinder model) ([2]; SAXS fit) [nm]	binding duration in areas of atherosclerosis (LDLR KO mice; after injection)	time post injection when fluorescent pixel analysis was not different from control non-injected mice (LDLR KO mice; aortic root) [days]	dose dependence of localization at the aortic root (LDLR KO mice; constant concentration 2 mg/mL)	fluorescent pixels in aortic root, 4 mg/mL vs. 2 mg/mL (LDLR KO mice; constant dose 8 mg/kg, 24 hours after injection)	localization in male versus female LDLR KO mice (LDLR KO mice; mouse, in vivo)	localization to areas of atherosclerosis (LDLR KO mice; within 24 hours after injection, confocal, Alexa Fluor 546)	detection in the lung, liver, and kidney ([3]; 1-14 days post injection)	time when red fluorescent pixels returned to non-injected control levels ([3]; all internal organs, post injection) [days]	time of detection in the spleen ([3]; post injection) [days]
10% MMP-Ac2-26 PA: co-assembly of 10 mol % MMP-Ac2-26 PA, 50 mol % E2 filler PA, and 40% ApoA1 PA (VVAAEEGGGPQGIWGQGKAMVSEFLKQAWFIENEEQEYVQTVK)	−18.1±0.5	maintained	no effect upon iNOS expression	−1.8	2.1	2.0									
CCCCCCCCCCCCCCCC(=O)N[C@H](C(=O)N[C@H](C(=O)N[C@@H](C)C(=O)N[C@@H](C)C(=O)N[C@@H](CCC(=O)O)C(=O)N[C@@H](CCC(=O)O)C(=O)NCC(=O)N[C@@H](CC(=O)O)C(=O)N[C@@H](Cc1c[nH]c2ccccc12)C(=O)N[C@@H](Cc1ccccc1)C(=O)N[C@@H](CCCCN)C(=O)N[C@@H](C)C(=O)N[C@@H](Cc1ccccc1)C(=O)N[C@@H](Cc1ccc(O)cc1)C(=O)N[C@@H](CC(=O)O)C(=O)N[C@@H](CCCCN)C(=O)N[C@H](C(=O)N[C@@H](C)C(=O)N[C@@H](CCC(=O)O)C(=O)N[C@@H](CCCCN)C(=O)N[C@@H](Cc1ccccc1)C(=O)N[C@@H](CCCCN)C(=O)N[C@@H](CCC(=O)O)C(=O)N[C@@H](C)C(=O)N[C@@H](Cc1ccccc1)C(N)=O)C(C)C)C(C)C)C(C)C [ApoA1 PA] (Palmitoyl-VVAAEEGDWFKAFYDKVAEKFKEAF-NH2)							remained localized to areas of atherosclerosis at high concentrations for two days	10 to 14	Doses of 8 mg/kg and 6 mg/kg were superior to 4 mg/kg, which was superior to 1.7 mg/kg	no significant difference	no statistically significant difference in localization between the sexes	localized to areas of atherosclerosis	minimal detection	10 to 14	1 to 10
